Reference: patent US20220233641A1, “Methods and Compositions for Treating Obesity and/or Skin Disorders” (THE TRUSTEES OF THE UNIVERSITY OF PENNSYLVANIA, priority 2019, published 2022)
Entries after “also recorded” stand apart in the source; their conditions may differ.

Experiments:
HFD-fed mice = assay: Topical MC903 in HFD-fed WT C57BL/6 mice (weight gain, eWAT, GTT, HOMA-IR, liver histology); type: in vivo, mouse
Method: WT C57BL/6 mice were fed a normal chow (NC) or 40% high fat diet (HFD) for 12 weeks. The mice were topically treated with either vehicle (EtOH) or MC903 (2 nmol/ear) on both ears Monday, Wednesday, and Friday on odd weeks. (FIG. 1A) Mice were weighed weekly and % change from baseline is plotted as mean±SEM. (FIG. 1B) The mice were euthanized on Week 12 and the epididymal fat pads were weighed. (FIG. 1C, FIG. 1D) Glucose tolerance test was performed on Week 12 by injection of glucose and subsequent measurements of blood glucose levels. HOMA-IR analysis was performed after an overnight fast at Week 12. *, **, and *** indicate statistical significance of p<0.05, p<0.01, and p<0.001, respectively by Student t-test or ANOVA.
WT C57BL/6 mice were fed a normal chow (NC) or 40% high fat diet (HFD) for 12 weeks. The mice were topically treated with either vehicle (EtOH) or MC903 (2 nmol/ear) on both ears Monday, Wednesday, and Friday on odd weeks. Shown are representative histological images of the liver on Week 12.
Wildtype C57BL/6 mice were fed a normal chow (NC) or 40% high fat diet (HFD) for 12 weeks. The mice were topically treated with either vehicle (EtOH) or MC903 (2 nmol/ear) on both ears Monday, Wednesday, and Friday on odd weeks. (A) Mice were weighed weekly and % change from baseline is plotted as mean±SEM. (B) The mice were euthanized on Week 12 and the epididymal fat pads were weighed. (C, D) Glucose tolerance test (GTT) was performed on Week 12 by injection of glucose and subsequent measurements of blood glucose levels. Homeostatic model assessment-insulin resistance (HOMA-IR) analysis was performed after an overnight fast at Week 12. *, **, and *** indicate statistical significance of p<0.05, p<0.01, and p<0.001, respectively by Student t-test or ANOVA.
C57BL/6 mice were fed a normal chow (NC) or 40% high fat diet (HFD) for 12 weeks. The mice were topically treated with either vehicle (EtOH) or MC903 (2 nmol/ear) on both ears Monday, Wednesday, and Friday on odd weeks. Shown are representative histological images of the liver on Week 12.

HFD-fed TSLP-R KO mice = assay: Topical MC903 in HFD-fed TSLP-R KO mice; type: in vivo, mouse; settings: HFD-fed TSLP-R-deficient mice, topical MC903 2 nmol/ear, 12 weeks
Method: TSLP-R KO mice were fed a normal chow (NC) or 40% high fat diet (HFD) for 12 weeks. The mice were topically treated with either vehicle (EtOH) or MC903 (2 nmol/ear) on both ears Monday, Wednesday, and Friday on odd weeks. Mice were weighed on the indicated time points and plotted as mean±SEM. Glucose tolerance test was performed on Week 12 by injection of glucose and subsequent measurements of blood glucose levels. AUC analysis is performed on the GTT curves. * indicates statistical significance of p<0.05 by Student t-test.
TSLP-R knock out (KO) mice were fed a normal chow (NC) or 40% high fat diet (HFD) for 12 weeks. The mice were topically treated with either vehicle (EtOH) or MC903 (2 nmol/ear) on both ears Monday, Wednesday, and Friday on odd weeks. Mice were weighed on the indicated time points and plotted as mean±SEM. Glucose tolerance test (GTT) was performed on Week 12 by injection of glucose and subsequent measurements of blood glucose levels. AUC analysis is performed on the GTT curves. * indicates statistical significance of p<0.05 by Student t-test.

human individual = assay: Topical MC903 application to arm or leg of human individuals (remote effects on sebum, dry skin, scalp hair, dry eye); type: in vivo
Method: MC903 was applied topically to the right arm of an individual daily. Sebum measurements were obtained by cleaning the forehead with ethanol wipe, resting for 15 minutes, and placing sebutape on the forehead for 2 minutes. Black dots on the blue and white background of the tape indicates the presence of sebum at each day post treatment.
MC903 was applied topically to the right arm of an individual daily. Photographs of the right hand before and after 3 or 5 days post treatment is shown. The individual was treated for 14 days total with no need of hand cream at least 9 weeks even after treatment was discontinued. In certain embodiments, secretion of sebum lasts after cessation of treatment.
MC903 was applied topically to the left arm daily of an individual for 14 days (1st treatment). Treatment was stopped for 4 weeks and restarted for an additional 2 weeks (2nd treatment) on the right arm daily. Photographs of the scalp before, 2 weeks after 1st treatment, 11 days after 2nd treatment, and 8 weeks after 2nd treatment are shown.[…].
MC903 was applied topically to the left arm daily of an individual and the right leg another individual for 14 days (1st treatment). The presence of dry eye symptoms was subjectively evaluated in the two individuals before and after treatment. The response is plotted in a bar graph.

[1] = HFD-fed mice, Week 12, vs vehicle

C=C1/C(=C\C=C2/CCC[C@]3(C)[C@@H]([C@H](C)/C=C/[C@@H](O)C4CC4)CC[C@@H]23)C[C@@H](O)C[C@@H]1O [MC903, 26,27-cyclo-22-ene-1α,24S-dihydroxyvitamin D3]
weight gain (HFD-fed mice; HFD-fed WT C57BL/6 mice, topical MC903 2 nmol/ear, 12 weeks, vs vehicle (EtOH)): significantly reduced weight gain; also recorded: significantly less weight gain; also recorded: prevention weight gain
epididymal white adipose tissue (eWAT) weight (HFD-fed mice; [1]): significantly decreased
fat deposition in the liver (histology) (HFD-fed mice; [1]): markedly reduced; also recorded: appeared very similar to the tissue of mice fed with normal chow; also recorded: prevention of HFD-induced hepatosteatosis
metabolic parameters (GTT and HOMA-IR) (HFD-fed mice; [1]): improved metabolic parameters; also recorded: improvement in metabolic parameters
weight gain and metabolic parameters (HFD-fed TSLP-R KO mice): does not prevent weight gain or improve metabolic parameters
time with no need of hand cream after treatment was discontinued (human individual; human individual treated for 14 days total): at least 9 weeks
scalp hair growth (human individual; human individual, 2 cycles of 2-week topical MC903 on the arm): substantial recovery of hair growth; also recorded: remotely promotes scalp hair growth
sebum on the forehead (sebutape) (human individual; one human individual, MC903 topically on the arm daily): increasing amounts of sebum on the forehead; also recorded: remotely increases sebum secretion
eczematous dry skin of a hand (human individual; one human individual, MC903 topically on the right arm daily): marked improvement; also recorded: remotely cures dry skin of the hand
dry eye symptoms (subjective) (human individual; two human individuals, MC903 on arm or leg daily for 14 days): improvement in dry eye symptoms; also recorded: remotely improves dry eye symptoms
